From patent US9856480B2, “Dnazyme for silencing the expression of EGFR” (DCB-USA LLC, priority 2013, dated 2018)
Strand notation (5' to 3'): a small letter for the sugar, then the base; units joined by * are phosphorothioate-linked, units joined directly phosphodiester-linked; [ ] holds rarer units or linkages, { } end groups; capitals alone tell only the bases. d = 2'-deoxy (DNA)

Assays:
Assay type in all cases: cell-based, human
[1] = tested on: CL97 cells; assay: Apoptosis assay (annexin V and PI, flow cytometry); settings: 100 nM, 48 h
Experimental: (§1) H1975 or CL97 was seeded onto 10-cm dish and cultured overnight. Then, cells were separately treated with 100 nM DzControl or DzT790M-1 with lipofectamine 2000 (Invitrogen). After 48 h, cells were collected, double stained by annexin V and PI, and analyzed by flow cytometry following the protocol of Dead cell apoptosis kit from manufacturer (Invitrogen).

[2] = tested on: H1975 cells; assay: Apoptosis assay (annexin V and PI, flow cytometry); settings: 100 nM, 48 h
Experimental: as §1

[3] = tested on: wild-type EGFR; assay: Western immunoblotting of EGFR expression and downstream signaling in wild-type EGFR cell lines; settings: A549 and CL1-5 cells, 100 nM
Experimental: A549, CL1-5, H1975, or CL97 was seeded onto 6-well at 3×10^5 cells/well and cultured overnight. Then, cells were separately treated with 100 nM DzControl or DzT790M-1 with lipofectamine 2000 (Invitrogen). The transfected A549 and CL1-5 cells were serum-starved for 24 h and treated with 100 ng/ml of EGF at 37° C. for 15 min. 72 h after transfection, cell were collected for analysis. Cells were washed twice by ice-cold PBS and then total protein was extracted by RIPA buffer with protease inhibitor (Roche). 50 μg of total protein from the supernatants were boiled for 5 min at 95° C. The samples were resolved on 10% SDS-PAGE gel and transferred onto nitrocellulose membranes. EGFR expression and downstream signaling were detected by using primary antibodies specific to human pEGFR(Y1068) (Cell signaling), tEGFR (Santa Cruz), pSTAT3 (Y705) (Cell signaling), tSTAT3 (Cell signaling), pAKT (5473)(Cell signaling), tAKT (Santa Cruz), pERK (T202/Y204) (Cell signaling), tERK (Santa Cruz), and cleaved PARP (Cell signaling) at 1:1000 dilution and β-actin (Santa Cruz) at 1:10000 dilution, respectively. Secondary antibodies against rabbit IgG or mouse IgG was used at 1:5000 dilution. Protein bands on membrane were visualized by exposure to the chemiluminescence substrate.
EGFR belongs to receptor tyrosine kinases. The binding of its extracellular ligands triggers receptor dimerization, tyrosine residues phosphorylation, and downstream signaling activation including signal transducer and activator of transcription 3 (STAT3), Akt, extracellular signal regulated kinases (ERK), and others. To examine the effects of DzT790M on protein expression level of EGFR and its downstream signaling, western immunoblotting was performed on DzT790M transfected cells. A549, CL1-5, H1975, or CL97 was seeded onto 6-well at 3×10^5 cells/well and cultured overnight. Then, cells were separately treated with 100 nM DzControl or DzT790M-1 with lipofectamine 2000 (Invitrogen). The transfected A549 and CL1-5 cells were serum-starved for 24 h and treated with 100 ng/ml of EGF at 37° C. for 15 min. 72 h after transfection, cell were collected for analysis. Cells were washed twice by ice-cold PBS and then total protein was extracted by RIPA buffer with protease inhibitor (Roche). […] Also, activation of downstream STAT3, AKT, and ERK signaling after EGF treatment were not inhibited by DzT790M-1 or DzT790M-2 transfection.
CL1-5 (EGFR wild-type) or H1975 (EGFR T790M) were seeded onto 6-well at 3×10^5 cells/well and cultured overnight. […] The transfected CL1-5 cells were serum-starved for 24 h and treated with 100 ng/ml of EGF at 37° C. for 15 min. 72 h after transfection, cells were collected for western blotting analysis following the above mentioned procedure. […]

[4] = tested on: wild-type EGFR mRNA; assay: Quantitative real-time PCR of EGFR mRNA knockdown; settings: A549 cells; 50, 100, or 150 nM; 48 h
Experimental: A549, CL1-5, H1975, or CL97 was seeded onto 6-well at 3×10^5 cells/well and cultured overnight. Then, cells were separately treated with 100 nM DzControl or DzT790M-1 with lipofectamine 2000 (Invitrogen). After 48 h, total mRNA were extracted from DNAzyme-treated cells by Mestrisol following manufacturer's protocol. cDNA were synthesized by using RT III kit with random hexamers as primers (Invitrogen). The PCR primers were synthesized by Genomics BioSci & Tech (Taipei, Taiwan). The sequences of PCR primers are listed as follows: […]
The parameters for PCR were: 95° C. for 10 min, then 25 cycles of PCR at 95° C. for 30 s, 60° C. for 30 s, and 72° C. for 60 s. 3% agarose gels were used for electrophoresis of PCR products. The intensity of bands were quantified by Image J. Quantitative RT-PCR was performed on 40 ng total mRNA with the LightCycler 480 system (Roche). The PCR mix contained 5 μl of 2× Probe Master mix, 100 nM of UPL probe (Roche Diagnostics, Penzberg, Germany), 200 nM of forward primer and reverse primer, 0.1 ul RNAseout (Invitrogen), and 0.025 ul RTIII enzyme (Invitrogen) in a total volume of 10 μl. PCR parameters were as follows: 50° C. for 40 min, then 45 cycles of PCR at 95° C. for 10 s, 60° C. for 10 s, and 72° C. for 2 s. Data were analyzed by LC480 software (Roche Diagnostics, Penzberg, Germany). The relative amount of EGFR mRNA was normalized to ACTB mRNA. The sequences of PCR primers are as follows: […]
To examine the allele selectivity of DzT790M-1, EGFR mRNA knockdown efficiency was detected in two cell lines harboring wild-type EGFR (A549, CL1-5) and two cell lines containing EGFR T790M mutation (H1975, CL97). A549, CL1-5, H1975, or CL97 was seeded onto 6-well at 3×10^5 cells/well and cultured overnight. […]
Then, A549 and PC9 cells were separately treated with 50, 100, or 150 nM control DNAzyme or DzEGFR—ΔE746-A750 with Lipofectamine 2000 for 48 h. […] Quantitative RT-PCR was performed on 40 ng total mRNA with the LightCycler 480 system (Roche). […] Data were analyzed by LC480 software (Roche Diagnostics). […]

[5] = tested on: EGFR E746-A750 deletion mRNA; assay: Quantitative RT-PCR of EGFR mRNA in PC9 cells; settings: 50, 100, or 150 nM, 48 h, DzControl-treated group as 100% expression
Experimental: Then, A549 and PC9 cells were separately treated with 50, 100, or 150 nM control DNAzyme or DzEGFR—ΔE746-A750 with Lipofectamine 2000 for 48 h. A549 and H1975 cells were separately treated with 100 nM control DNAzyme or different DzL858Rs with Lipofectamine 2000 for 48 h. RNA purification was done by conventional TRIzol® (Invitrogen Corp., Grand Island, N.Y.) method following manufacturer's protocol. Quantitative RT-PCR was performed on 40 ng total mRNA with the LightCycler 480 system (Roche). The PCR mix contained 5 μl of 2× ProbeMaster mix, 100 nM of UPL probe (Roche Diagnostics, Penzberg, Germany) and 200 nM of primer (each) in a total volume of 10 μl. The PCR conditions were 95° C. for 10 min, followed by 60 cycles at 95° C. for 10 s, 60° C. for 10 s, and 72° C. for 2 s. Data were analyzed by LC480 software (Roche Diagnostics). The relative amount of EGFR mRNA was normalized to ACTB mRNA. The sequences of PCR primers are as follows: […]

[6] = tested on: A549 cells (wild type EGFR); assay: Cell proliferation (MTT); settings: 150 nM of DNAzyme, 48 h
Experimental: (§2) Then, cells were separately treated with 50, 100, or 150 nM control DNAzyme or DzEGFR—ΔE746-A750 with Lipofectamine 2000 for 48 h.

[7] = tested on: PC9 cells (E746-A750 deletion EGFR); assay: Cell proliferation (MTT); settings: 48 h, DzControl-treated group as 0% death
Experimental: as §2

DzControl: control DNAzyme not complementary to any mRNA in human cells: CATCGGAGGCTAGCTACAACGAGACAGCTG (DNA dC*dAdTdCdGdGdAdGdGdCdTdAdGdCdTdAdCdAdAdCdGdAdGdAdCdAdGdCdT*dG; further chemistry not fully specified) [reference compound]
percentage of apoptotic cells in whole cell population [1]: 5.2%
percentage of dead cells in whole cell population [1]: 17%
apoptotic cells [2]: 3.6%
dead cells (annexin V and PI double positive) [2]: 12.4%

DzT790M-2: 10-23 DNAzyme against EGFR T790M mRNA, arms 8/8: GAGCTGCAGGCTAGCTACAACGAGATGAGCT (DNA, backbone and methylation of C not given here)
activation of downstream STAT3, AKT, and ERK signaling after EGF treatment ([3]; 100 ng/ml EGF 15 min): not inhibited
protein level of EGFR compared to DzControl group ([3]; 72 h after transfection): did not decreased

DzEGFR—ΔE746-A750: DNAzyme against EGFR E746-A750 deletion: GGAGATGTGTCAGCTGACTCGAATGATAGCGAC (DNA, backbone and methylation of C not given here)
binding and action on wild type EGFR [4]: did not bind and act
mutant EGFR expression [5]: suppressed
viability of A549 cells affected [6]: 20%
death of PC9 cells [7]: 60%
